Results: PubChem BioAssay (NCI)
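Tested at 5 concentrations; 48 h exposure; 96-well plates; endpoints linearly interpolated, else capped at highest concentration. The concentration for 50% growth inhibition is given as GI50. TGI denotes the concentration required for complete inhibition of growth.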

What was measured:
Assay in all cases: DTP human tumour cell line panel, 48 h
NCI-H226 lung = system: NCI-H226 lung
NCI-H23 lung = system: NCI-H23 lung
NCI-H460 lung = system: NCI-H460 lung
NCI-H522 lung = system: NCI-H522 lung
NCI/ADR-RES ovarian = system: NCI/ADR-RES ovarian
OVCAR-3 ovarian = system: OVCAR-3 ovarian
OVCAR-4 ovarian = system: OVCAR-4 ovarian
OVCAR-5 ovarian = system: OVCAR-5 ovarian
OVCAR-8 ovarian = system: OVCAR-8 ovarian
PC-3 prostate = system: PC-3 prostate
RPMI-8226 leukemia = system: RPMI-8226 leukemia
RXF 393 renal = system: RXF 393 renal
SF-268 CNS = system: SF-268 CNS
SF-295 CNS = system: SF-295 CNS
SF-539 CNS = system: SF-539 CNS
SK-MEL-2 melanoma = system: SK-MEL-2 melanoma
SK-MEL-28 melanoma = system: SK-MEL-28 melanoma
SK-MEL-5 melanoma = system: SK-MEL-5 melanoma
SK-OV-3 ovarian = system: SK-OV-3 ovarian
SN12C renal = system: SN12C renal
SNB-19 CNS = system: SNB-19 CNS
SR leukemia = system: SR leukemia
T-47D breast = system: T-47D breast
TK-10 renal = system: TK-10 renal
U251 CNS = system: U251 CNS
UACC-257 melanoma = system: UACC-257 melanoma
UACC-62 melanoma = system: UACC-62 melanoma
UO-31 renal = system: UO-31 renal

COc1ccc(C(=O)/C=C/c2cccc(Br)c2)cc1S(N)(=O)=O
GI50 (NCI-H226 lung): 2.81 µM | TGI (NCI-H226 lung): 11.4 µM | GI50 (NCI-H23 lung): 1.77 µM | TGI (NCI-H23 lung): 3.43 µM | GI50 (NCI-H460 lung): 3.16 µM | TGI (NCI-H460 lung): 11.4 µM | GI50 (NCI-H522 lung): 1.63 µM | TGI (NCI-H522 lung): 3.23 µM | GI50 (NCI/ADR-RES ovarian): 2.21 µM | TGI (NCI/ADR-RES ovarian): 7.13 µM | GI50 (OVCAR-3 ovarian): 1.29 µM | TGI (OVCAR-3 ovarian): 3.17 µM | GI50 (OVCAR-4 ovarian): 4.08 µM | TGI (OVCAR-4 ovarian): 17.3 µM | GI50 (OVCAR-5 ovarian): 1.74 µM | TGI (OVCAR-5 ovarian): 4.25 µM | GI50 (OVCAR-8 ovarian): 2.28 µM | TGI (OVCAR-8 ovarian): 10.6 µM | GI50 (PC-3 prostate): 2.02 µM | TGI (PC-3 prostate): 4.93 µM | GI50 (RPMI-8226 leukemia): 2.05 µM | TGI (RPMI-8226 leukemia): 5.52 µM | GI50 (RXF 393 renal): 1.6 µM | TGI (RXF 393 renal): 3.2 µM | GI50 (SF-268 CNS): 3.02 µM | TGI (SF-268 CNS): 12.7 µM | GI50 (SF-295 CNS): 2.09 µM | TGI (SF-295 CNS): 6.44 µM | GI50 (SF-539 CNS): 1.69 µM | TGI (SF-539 CNS): 3.44 µM | GI50 (SK-MEL-2 melanoma): 8.73 µM | TGI (SK-MEL-2 melanoma): 21.9 µM | GI50 (SK-MEL-28 melanoma): 2.15 µM | TGI (SK-MEL-28 melanoma): 5.46 µM | GI50 (SK-MEL-5 melanoma): 2.31 µM | TGI (SK-MEL-5 melanoma): 6.38 µM | GI50 (SK-OV-3 ovarian): 4.06 µM | TGI (SK-OV-3 ovarian): 15 µM | GI50 (SN12C renal): 1.44 µM | TGI (SN12C renal): 3.48 µM | GI50 (SNB-19 CNS): 2.91 µM | TGI (SNB-19 CNS): 12 µM | GI50 (SR leukemia): 0.732 µM | TGI (SR leukemia): 3.54 µM | GI50 (T-47D breast): 2.13 µM | TGI (T-47D breast): 6.01 µM | GI50 (TK-10 renal): 2.23 µM | TGI (TK-10 renal): 11.9 µM | GI50 (U251 CNS): 1.34 µM | TGI (U251 CNS): 2.69 µM | GI50 (UACC-257 melanoma): 3.27 µM | TGI (UACC-257 melanoma): 14.5 µM | GI50 (UACC-62 melanoma): 1.68 µM | TGI (UACC-62 melanoma): 3.89 µM | GI50 (UO-31 renal): 1.29 µM | TGI (UO-31 renal): 2.7 µM
